# Measurements taken from publication PMC12589586, “Targeting TAZ-TEAD in minimal residual disease enhances the duration of targeted therapy in melanoma models” (Nature Communications, 2025).
# What was measured:
# TEAD1 [1] = target: T1, TEAD1 (Homo sapiens, UniProt P28347); assay: protein thermal shift assay (delta Tm); assay type: binding; set-up: FLAG-tagged hTEAD1, depalmitoylated
# TEAD4 = target: T2, TEAD4 (Mus musculus, UniProt Q62296); assay: protein thermal shift assay (delta Tm); no binding to palmitoylated TEAD4
# T2 construct: FLAG-tagged mTEAD4, depalmitoylated
# T2 sequence (Q62296 whole entry): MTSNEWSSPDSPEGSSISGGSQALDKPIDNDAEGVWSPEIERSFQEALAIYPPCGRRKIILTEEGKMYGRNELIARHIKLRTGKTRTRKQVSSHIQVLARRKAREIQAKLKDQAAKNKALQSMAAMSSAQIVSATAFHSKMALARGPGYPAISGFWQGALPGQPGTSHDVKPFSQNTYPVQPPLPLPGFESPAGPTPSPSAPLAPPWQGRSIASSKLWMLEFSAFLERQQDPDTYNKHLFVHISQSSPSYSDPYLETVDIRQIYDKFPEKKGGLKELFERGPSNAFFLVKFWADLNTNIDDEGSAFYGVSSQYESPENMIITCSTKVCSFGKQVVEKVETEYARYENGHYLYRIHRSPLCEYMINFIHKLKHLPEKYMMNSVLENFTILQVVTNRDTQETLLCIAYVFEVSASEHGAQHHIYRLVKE
# TEAD1 [2] = target: T1, TEAD1; assay: co-crystal structure ([…] Å); also protein thermal shift; assay type: binding; set-up: FLAG-tagged hTEAD1, depalmitoylated (thermal shift)
# T1 sequence (P28347 whole entry): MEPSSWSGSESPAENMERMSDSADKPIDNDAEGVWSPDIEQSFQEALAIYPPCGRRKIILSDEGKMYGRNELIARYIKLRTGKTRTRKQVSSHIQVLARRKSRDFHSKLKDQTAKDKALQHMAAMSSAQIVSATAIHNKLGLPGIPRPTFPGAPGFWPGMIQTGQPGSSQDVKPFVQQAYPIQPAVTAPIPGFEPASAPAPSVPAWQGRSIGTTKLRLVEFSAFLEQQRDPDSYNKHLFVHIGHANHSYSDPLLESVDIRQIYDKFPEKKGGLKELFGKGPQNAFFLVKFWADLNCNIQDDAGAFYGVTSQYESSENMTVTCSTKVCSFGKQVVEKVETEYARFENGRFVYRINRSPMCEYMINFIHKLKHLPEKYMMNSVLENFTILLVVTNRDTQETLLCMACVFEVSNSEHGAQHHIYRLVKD
Compound,protein thermal shift assay (delta Tm) (TEAD1 [1]),protein thermal shift assay (delta Tm); no binding to palmitoylated TEAD4 (TEAD4),co-crystal structure (2.03 Å); also protein thermal shift (TEAD1 [2])
"C=CC(=O)N1CCc2ccc(Oc3ccc(C(F)(F)F)cc3)cc2C1 [OPN-9643, 1-(7-(4-(trifluoromethyl)phenoxy)-3,4-dihydroisoquinolin-2(1H)-yl)prop-2-en-1-one]",protein thermal shift analysis and confirmed the binding of both compounds to depalmitoylated TEAD1 and TEAD4 proteins,"Incubation of these compounds with depalmitoylated TEAD4 resulted in significant Tm shifts, indicating binding and stabilization of target proteins",
"C=CC(=O)N1CCc2ccc(Oc3ccc(C(F)(F)F)c(F)c3)cc2C1 [OPN-9652, 1-(7-(3-fluoro-4-(trifluoromethyl)phenoxy)-3,4-dihydroisoquinolin-2(1H)-yl)prop-2-en-1-one]",,"Incubation of these compounds with depalmitoylated TEAD4 resulted in significant Tm shifts, indicating binding and stabilization of target proteins",OPN-9652 occupies the central palmitate-binding pocket and covalently modifies Cys359
